These results are taken from ChEMBL document CHEMBL4196002, “Design, synthesis, mechanistic and histopathological studies of small-molecules of novel indole-2-carboxamides and pyrazino[1,2-a]indol-1(2H)-ones as potential anticancer agents effecting the reactive oxygen species production” (Eur J Med Chem, 2018).

One data set deals with A549. In words: Antiproliferative activity human A549 cells after 48 hrs by propidium iodide staining-based fluorescence assay. The class given is functional, cell-based. Particulars: A549, 48 h.
Another data set has as its target Tubulin (Homo sapiens) (UniProt P68371+Q9H4B7+P0DPH7+P68366+Q13509+Q71U36+P04350+Q3ZCM7+P07437+P68363+Q9BQE3+Q6PEY2+Q13885+Q9BVA1+Q9BUF5). In words: Inhibition of tubulin (unknown origin) polymerization assessed as tubulin assembly rate by fluorescence assay. The class given is protein-complex assay.
The nature of data set [1]: Cytotoxicity against human MCF10A cells assessed as cell viability at 50 uM after 96 hrs by MTT assay relative to control. Format: cell-based, MCF-10A. The following applies: read-out: Activity. (Tetrazolium dyes change colour on reduction, which living cells bring about.)
A further data set concerns HT-29. In words: Antiproliferative activity human HT-29 cells after 48 hrs by propidium iodide staining-based fluorescence assay. The class given is functional, cell-based. The following applies: HT-29, 48 h.
Data set [2] in a line: Inhibition of ROS generation in human PMN at 6.25 ug/ml after 50 mins by luminol-based chemiluminescence assay relative to control. The class given is functional.
Data set [3] can be described thus: Antioxidant activity assessed as DPPH radical scavenging activity at 10 uM after 30 mins dark incubation. Format: functional. A general note: Loss of DPPH colour is used to gauge radical scavenging.
A short description of data set [4]: Inhibition of ROS generation in human PMN at 0.78 ug/ml after 50 mins by luminol-based chemiluminescence assay relative to control. The class given is functional.
The nature of data set [5]: Antioxidant activity assessed as DPPH radical scavenging activity at 100 uM after 30 mins dark incubation. The class given is functional.
The nature of data set [6]: (§1) Inhibition of ROS generation in human PMN after 50 mins by luminol-based chemiluminescence assay. Format: functional.
The next data set is filed under the species Homo sapiens. The data set is described as §1. The class given is functional.
Another data set deals with PC-3. In words: Antiproliferative activity human PC3 cells after 48 hrs by propidium iodide staining-based fluorescence assay. The class given is functional, cell-based. Particulars: PC-3, 48 h.
For the next data set, the system named is MCF7. In words: Antiproliferative activity human MCF7 cells after 48 hrs by propidium iodide staining-based fluorescence assay. Format: functional, cell-based. The following applies: MCF7, 48 h.
For data set [7], the target named is Serine/threonine-protein kinase B-raf (Mus musculus, UniProt P28028, V600E). Description: Inhibition of mouse full-length GST-tagged BRAF V600E mutant using recombinant human full length N-terminal His-tagged MEK1 as substrate preincubated for 60 mins followed by substrate addition and measured after 25 mins by ELISA. A general note: An ELISA detects its analyte on a solid surface through an enzyme-linked reagent.
Sequence of Serine/threonine-protein kinase B-raf (P28028 whole entry, looked up, stated change not applied): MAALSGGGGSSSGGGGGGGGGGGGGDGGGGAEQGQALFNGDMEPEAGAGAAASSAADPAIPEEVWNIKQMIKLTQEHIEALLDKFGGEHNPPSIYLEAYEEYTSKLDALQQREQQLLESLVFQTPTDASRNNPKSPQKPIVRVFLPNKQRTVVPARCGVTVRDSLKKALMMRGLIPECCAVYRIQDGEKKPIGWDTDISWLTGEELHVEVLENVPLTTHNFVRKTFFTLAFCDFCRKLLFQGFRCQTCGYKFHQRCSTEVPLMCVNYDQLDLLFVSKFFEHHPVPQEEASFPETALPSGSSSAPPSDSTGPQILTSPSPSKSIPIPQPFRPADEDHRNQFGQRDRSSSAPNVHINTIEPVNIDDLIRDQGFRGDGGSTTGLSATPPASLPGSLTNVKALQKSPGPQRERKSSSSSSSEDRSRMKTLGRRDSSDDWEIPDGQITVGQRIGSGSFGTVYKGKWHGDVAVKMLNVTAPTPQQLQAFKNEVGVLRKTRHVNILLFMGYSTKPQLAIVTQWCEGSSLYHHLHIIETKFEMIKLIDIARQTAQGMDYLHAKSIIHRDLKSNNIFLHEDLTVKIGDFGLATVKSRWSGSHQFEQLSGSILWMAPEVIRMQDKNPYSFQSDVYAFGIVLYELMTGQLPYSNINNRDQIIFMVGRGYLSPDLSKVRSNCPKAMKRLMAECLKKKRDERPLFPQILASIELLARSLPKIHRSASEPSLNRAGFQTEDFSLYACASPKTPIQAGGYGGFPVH

Data set [8] in a line: Inhibition of ROS generation in human PMN at 1.56 ug/ml after 50 mins by luminol-based chemiluminescence assay relative to control. Format: functional.
Data set [9] is described as follows: Inhibition of ROS generation in human PMN at 3.13 ug/ml after 50 mins by luminol-based chemiluminescence assay relative to control. The class given is functional.
A short description of data set [10]: Inhibition of ROS generation in human PMN at 12.5 ug/ml after 50 mins by luminol-based chemiluminescence assay relative to control. The class given is functional.
In a further data set the test system is MIA PaCa-2. Description: Antiproliferative activity human MIAPaCa2 cells after 48 hrs by propidium iodide staining-based fluorescence assay. The following applies: MIA PaCa-2, 48 h. Format: functional, cell-based.
The nature of data set [11]: Antioxidant activity assessed as DPPH radical scavenging activity at 50 uM after 30 mins dark incubation. The class given is functional.
In data set [12] the target is Epidermal growth factor receptor (Homo sapiens, UniProt P00533). Description: Inhibition of His6-tagged EGFR (unknown origin) cytoplasmic domain expressed in baculovirus infected Sf9 insect cells after 10 mins followed by addition of ATP-MgCl2 and measured after 1 hr by time-resolved fluorometric analysis.
Sequence of Epidermal growth factor receptor (P00533 whole entry, the tested form may be a part): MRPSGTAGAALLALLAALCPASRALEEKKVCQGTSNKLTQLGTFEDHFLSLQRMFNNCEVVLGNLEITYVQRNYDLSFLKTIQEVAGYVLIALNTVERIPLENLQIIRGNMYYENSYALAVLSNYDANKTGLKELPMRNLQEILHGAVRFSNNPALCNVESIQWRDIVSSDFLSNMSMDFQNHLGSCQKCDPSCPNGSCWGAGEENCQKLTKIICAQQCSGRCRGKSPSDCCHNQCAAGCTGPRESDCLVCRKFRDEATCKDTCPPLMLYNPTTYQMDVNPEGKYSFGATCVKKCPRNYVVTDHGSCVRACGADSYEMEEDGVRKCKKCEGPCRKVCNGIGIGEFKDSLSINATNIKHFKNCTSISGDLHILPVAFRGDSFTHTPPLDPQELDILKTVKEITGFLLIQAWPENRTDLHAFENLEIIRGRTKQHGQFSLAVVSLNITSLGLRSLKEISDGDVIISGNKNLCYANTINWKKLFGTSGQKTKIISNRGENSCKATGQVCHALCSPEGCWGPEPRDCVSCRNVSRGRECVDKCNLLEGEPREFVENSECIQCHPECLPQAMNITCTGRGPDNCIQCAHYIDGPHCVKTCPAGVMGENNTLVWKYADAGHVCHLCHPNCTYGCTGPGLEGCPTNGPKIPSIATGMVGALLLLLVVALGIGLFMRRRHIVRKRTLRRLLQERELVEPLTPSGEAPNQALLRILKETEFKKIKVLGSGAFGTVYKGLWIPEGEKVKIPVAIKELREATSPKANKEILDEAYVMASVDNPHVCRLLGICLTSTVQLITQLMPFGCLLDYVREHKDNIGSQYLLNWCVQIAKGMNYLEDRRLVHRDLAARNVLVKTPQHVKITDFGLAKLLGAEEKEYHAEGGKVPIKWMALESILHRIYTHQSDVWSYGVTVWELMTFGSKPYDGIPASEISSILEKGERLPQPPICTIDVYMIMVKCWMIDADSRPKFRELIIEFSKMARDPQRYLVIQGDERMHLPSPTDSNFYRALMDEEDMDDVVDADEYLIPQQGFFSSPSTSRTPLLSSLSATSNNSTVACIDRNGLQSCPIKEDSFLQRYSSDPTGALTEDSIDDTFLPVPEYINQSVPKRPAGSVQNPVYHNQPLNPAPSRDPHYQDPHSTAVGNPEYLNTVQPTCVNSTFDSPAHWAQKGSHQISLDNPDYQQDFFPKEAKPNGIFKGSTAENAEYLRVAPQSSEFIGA

As a reminder, the IC50 is the concentration that gives 50% inhibition. Broadly, the inhibition is the drop in the measured response relative to a control, in per cent. With `CCc1c2cc(C(F)(F)F)ccc2n2cc(Cc3ccccc3)[nH]c(=O)c12`, the IC50 is 1.4 µM in the data set with A549; 0.9 µM with HT-29; 6.53 µM in [6]; 1 µM in the data set on PC-3; 0.9 µM with MCF7; 0.9 µM in [7]. The results for the IC50 (with MIA PaCa-2; in data set [12]) were 1.1 µM and 3.9 µM, respectively. Further, the Activity amounted to 1920 a.u on Tubulin (Homo sapiens), 52.2% in data set [3], 84.4% in [5] and 72.9% in data set [11]. The viability at 96 h, 50 µM in data set [1] is 79%. Further, in data set [2], the inhibition at 6.25 µg/mL turned out to be 72%. In data set [4], this compound displayed an inhibition at 0.78 µg/mL of 31%. Further, the inhibition entry in the data set filed under Homo sapiens was “Dose-dependent effect”. 1.56 µg/mL produced 42% inhibition in [8]. Besides, testing at 3.13 µg/mL in data set [9] gave an inhibition of 56%. Moreover, in data set [10], 12.5 µg/mL produced 89% inhibition.

On to `CCc1c(C(=O)NC(CO)Cc2ccccc2)[nH]c2ccc(C(F)(F)F)cc12` (stereo not drawn), for which the IC50 turned out to be 1.5 µM with A549; 1.9 µM with HT-29; 9.7 µM in data set [6]; 1.1 µM in the data set on PC-3; 1.1 µM in the data set with MCF7; 1 µM in data set [7]. The values for the IC50 (in the data set on MIA PaCa-2; in data set [12]) were 1.3 µM and 0.9 µM, respectively. For the same compound, the Activity worked out at 2650 a.u on Tubulin (Homo sapiens), 43.4% in data set [3], 78% in data set [5] and 61.7% in data set [11]. Also, the viability at 96 h, 50 µM in [1] amounted to 80%. This compound had an inhibition at 6.25 µg/mL in data set [2] of 62%. The inhibition at 0.78 µg/mL in [4] worked out at 26%. Also, in the data set filed under Homo sapiens, the inhibition entry is “Dose-dependent effect”. Moreover, the inhibition at 1.56 µg/mL in [8] was found to be 31%. In addition, in [9], 3.13 µg/mL produced 47% inhibition. In data set [10], this compound displayed an inhibition at 12.5 µg/mL of 79%.
